Key:
IL-6 = IL-6 level in serum by ELISA, psoriasis model rats; assay type: in vivo, SD male rats; conditions: 7 days, vs model control group
Protocol: (§1) 60 SPF-grade SD male rats in the second animal group are divided into 6 groups: a blank control group, a model control group, an anemoside B4 intragastric administration group (5 mg/kg), an anemoside B4 intragastric administration group (10 mg/kg), an anemoside B4 intragastric administration group (20 mg/kg), and an acitretin intragastric administration group (5 mg/kg), and are respectively expressed into the blank control group, the model group, anemoside B4 5 mg/kg, anemoside B4 10 mg/kg, anemoside B4 20 mg/kg, and acitretin 5 mg/kg in FIGS. 3, 4 and 5 for convenience. A shaving area on the back of the rats in each group is 2.5 cm×3 cm, and the vellus is removed with mild depilatory cream. The rats of each group except the blank control group are modeled by administrating 62.5 mg 5% imiquimod cream on the shaving area until the skin is thickened and has erythema and silver scales for modeling completely.
(§2) 5% imiquimod cream is administrated once a day, and continuously administrated for 8 days for model establishment. On the second day, the rats in each group are continuously intragastric (i.g.) administered drugs for 7 days.
After administration, blood is taken from abdominal aorta of the rats in each group of the second animal group, centrifuged to collect the serum, and measured the M-CSF, VEGF, IL-6 and IL-17 level in the serum by ELISA kits according to the procedures of specification.

psoriasis skin lesions = assay: Histopathological observation of skin (HE staining), psoriasis model mice; assay type: in vivo, BALB/c male mice; conditions: 12 days
Protocol: (§3) A shaving area on the back of the mice in each group is 2.5 cm×3 cm, and the vellus is removed with mild depilatory cream. The mice of each group except the blank control group are modeled by administrating 62.5 mg 5% imiquimod cream on the shaving area until the skin is thickened and has erythema and silver scales for modeling completely. During the model establishment, 5% imiquimod cream is administrated once a day, and continuously administrated for 14 days. On the third day, the model establishment is continued and drugs are administered at the same time, wherein the mice in the AC intragastric administration group (8 mg/kg), the anemoside B4 intragastric (i.g.) administration group (5 mg/kg), the anemoside B4 intragastric administration group (10 mg/kg), and the anemoside B4 intragastric administration group (20 mg/kg) are administrated once a day, and continuously administrated for 12 days. […] The mice in the blank control group and the model control group are applied 62.5 mg Vaseline to the skin lesions once a day, and continuously applied for 12 days. The weight of the mice is recorded for counting the weight change of the mice. After blood collection of the mice in each group of the first animal group, the mice are killed by dislocation of cervical vertebra, separated the skin in the skin lesions, and removed subcutaneous fat. Taking a part, fixing it with 4% paraformaldehyde, embedding, obtaining section, dying with hematoxylin and eosin (HE), and observing histopathological changes of the skin under a light microscope.

[1] = system: T lymphocyte subsets of CD4+, CD3+, CD4+/CD8+; assay: T lymphocyte subsets by flow cytometry, psoriasis model rats; assay type: in vivo, SD male rats; conditions: 7 days, vs model control group
Protocol: as §1, §2
After administration, blood is taken from abdominal aorta of the rats in each group of the second animal group, added erythrocyte lysis buffer, centrifuged to collect T lymphocytes, incubated CD4, CD3 and CD8 antibodies in 4° C., washed with a buffer, centrifuged to collect cells, and is subjected to flow cytometry to measure the ratio of the T lymphocyte subsets.

[2] = system: white blood cell (WBC), Neutrophilicgranulocyte (Neu) and Lymphocyte (Lym); assay: Blood analysis (blood routine tester), psoriasis model mice; assay type: in vivo, BALB/c male mice; conditions: 12 days, compared with model control group
Protocol: as §3, with “Eyeball” for “After”, “blood” for “blood collection”, “group is drawn on” for “group,”, “last day, and measured the level” for “mice are killed by dislocation”, “white blood cell (WBC), […] (Neu) and Lymphocyte (Lym) in blood with” for “cervical vertebra, separated”, “blood routine tester.” for “skin in the skin lesions, and removed subcutaneous fat. Taking a part, fixing it with 4% paraformaldehyde, embedding, obtaining section, dying with hematoxylin and eosin (HE), and observing histopathological changes of the skin under a light microscope.”

IL-1β = IL-1β level in skin tissue, psoriasis model mice; assay type: in vivo, BALB/c male mice; conditions: 12 days, compared with model control group
Protocol: as §3, with “100 mg skin tissue” for “After blood collection”, “group are precisely weighed, added 0.9 mL ice normal saline, homogenized with” for “group,”, “tissue grinder, and centrifuged at 4° C. and 3000 rpm for 10 min. The supernatant is collected, and IL-12, IL-17, IL-6 and IL-1β level” for “mice are killed by dislocation of cervical vertebra, separated the skin”, “tissue are measured by kits according to the procedures” for “lesions, and removed subcutaneous fat. Taking a part, fixing it with 4% paraformaldehyde, embedding, obtaining section, dying with hematoxylin and eosin (HE), and observing histopathological changes”, “specification.” for “the skin under a light microscope.”

[3] = intragastric 5 mg/kg once a day
[4] = intragastric 10 mg/kg once a day
[5] = intragastric 20 mg/kg once a day

Structure (SMILES): C=C(C)[C@@H]1CC[C@]2(C(=O)O[C@@H]3O[C@H](CO[C@@H]4O[C@H](CO)[C@@H](O[C@@H]5O[C@@H](C)[C@H](O)[C@@H](O)[C@H]5O)[C@H](O)[C@H]4O)[C@@H](O)[C@H](O)[C@H]3O)CC[C@]3(C)[C@H](CC[C@@H]4[C@@]5(C)CC[C@H](O[C@@H]6OC[C@H](O)[C@H](O)[C@H]6O[C@@H]6O[C@@H](C)[C@H](O)[C@@H](O)[C@H]6O)[C@@](C)(CO)[C@@H]5CC[C@]43C)[C@H]12 [anemoside B4]
- IL-6 level in serum (IL-6; intragastric 5 mg/kg): significantly decreased
- IL-6 level in serum (IL-6; intragastric 10 mg/kg): significantly decreased
- IL-6 level in serum (IL-6; intragastric 20 mg/kg): significantly decreased
- psoriasis skin lesions, HE staining of skin tissue (psoriasis skin lesions; [3]): significantly improved
- psoriasis skin lesions, HE staining of skin tissue (psoriasis skin lesions; [4]): significantly improved
- psoriasis skin lesions, HE staining of skin tissue (psoriasis skin lesions; [5]): significantly improved
- ratio of CD3+ in serum ([1]; intragastric 5 mg/kg): significantly increased
- ratio of CD4+ in serum ([1]; intragastric 5 mg/kg): significantly increased
- ratio of CD4+/CD8+ in serum ([1]; intragastric 5 mg/kg): significantly increased
- ratio of CD3+ in serum ([1]; intragastric 10 mg/kg): significantly increased
- ratio of CD4+ in serum ([1]; intragastric 10 mg/kg): significantly increased
- ratio of CD4+/CD8+ in serum ([1]; intragastric 10 mg/kg): significantly increased
- ratio of CD3+ in serum ([1]; intragastric 20 mg/kg): significantly increased
- ratio of CD4+ in serum ([1]; intragastric 20 mg/kg): significantly increased
- ratio of CD4+/CD8+ in serum ([1]; intragastric 20 mg/kg): significantly increased
- Lym in blood [2, 3]: significantly decreased
- Neu in blood [2, 3]: significantly decreased
- WBC in blood [2, 3]: significantly decreased
- Lym in blood [2, 4]: significantly decreased
- Neu in blood [2, 4]: significantly decreased
- WBC in blood [2, 4]: significantly decreased
- Lym in blood [2, 5]: significantly decreased
- Neu in blood [2, 5]: significantly decreased
- WBC in blood [2, 5]: significantly decreased
- level of IL-1β in the skin tissue (IL-1β; [3]): significantly reduced
- level of IL-1β in the skin tissue (IL-1β; [4]): significantly reduced
- level of IL-1β in the skin tissue (IL-1β; [5]): significantly reduced

From patent publication US11865129B2, “Application of anemoside B4 in preparation of a drug for treatment or prevention of psoriasis” (GUANGXI XINHAI PHARMACEUTICAL TECHNOLOGY CO., LTD., priority 2021, dated 2024)
